Source: patent US10858357B2, “Water-soluble myosin 2 inhibitors for the treatment of neurological, neuropathic or psychiatric diseases” (PARIS SCIENCES ET LETTRES-QUARTIER LATIN, priority 2016, dated 2020)
Converted amounts (≈) assume the structure as drawn.

Legend:
[1] = cited from earlier work; for solubility: Képiró et al., Angew. Chem. Int. Ed., 2014
[2] = system: EGFP-α-tubulin H2B-mCherry HeLa Kyoto cells; assay: HeLa cell toxicity, 12-hour confocal time-lapse imaging; format: cell-based, human; conditions: time-lapse imaging, concentration not given
Method: For phototoxicity experiments, confocal time-lapse imaging of HeLa Kyoto H2B-mCherry eGFP-α-tubulin cells for 12 hours was performed in DMEM further supplemented with 25 mM HEPES in order to achieve CO2 independent media. Confocal time-lapse imaging was performed on a Zeiss LSM 710 using a Plan Apo 20×/0.8 objective, with the following parameters: 2% laser intensity at λexc=488 nm, 3% laser intensity at λexc=543 nm, 1.2× zoom, average 4, line step 1, 1000×1000 pixels, 0.35 μm pixel size, 0.65 μs dwell time, 3 slice/z-stack with 7 μm between slices at every 10 minutes.
To test the cytotoxicity of neurelaxin-A in live-cell fluorescence microscopy, time-lapse EGFP-α-tubulin H2B-mCherry labeled HeLa Kyoto cells were imaged in a confocal microscope (FIG. 4a).
Cells were treated with 50 μM neurelaxin-A and imaged for 12 hours applying 3 z-sections every 10 minutes.

[3] = system: cannabinoid-induced working memory loss; assay: Novel object recognition (NOR) test with CP55,940; format: in vivo; conditions: CP55,940 1 hour prior to familiarization, no neurelaxin-A
Method: In this experiment, a novel object recognition (NOR) test was performed.
In this test animals are presented to two objects and it will explore them for a while. After, one of the objects is changed for a new and different one. Under normal circumstances animals will be attracted to the novel object and will spend more time exploring it, by comparison to the older and already known object. Animals with memory deficit will explore both objects equally.
The synthetic cannabinoid CB1R agonist CP55,940 is administrated 1 hour prior to the familiarization step. Thirty minutes prior to the familiarization animals are either treated or not with neurelaxin-A.

myosin 2 = conditions: Lucas-Lopez et al., 2008; cited from earlier work

For Cc1ccc2c(c1)C(=O)C1(O)CCN(c3ccccc3)C1=N2 (stereo not drawn) [Blebbistatin], which solubility [1] is on record?
The solubility was “around 20 μM”.

What about the “water solubility: concentration above which slow precipitation is observed” value ([1]; background statement) of the same compound?
The value was 10 µM (≈ 2.92 µg/mL).

And the “cytotoxic phenotype in HeLa Kyoto cells (positive control)” value [2]?
The value was “cells round up from the surface and eventually die”.

With CCCCCCC(C)(C)c1ccc([C@@H]2C[C@H](O)CC[C@H]2CCCO)c(O)c1 [CP55,940, reference compound] as the compound, how does the “NOR test: exploration of familiar and novel object” value [3] read?
Its value is “spend similar time exploring both objects”.

For O=C1c2ccc([N+](=O)[O-])cc2N=C2N(c3ccccc3)CCC12O (stereo not drawn) [Nitroblebbistatin], which IC50 (myosin 2) is on record?
Its IC50 is 27.5 µM.

With Cc1ccc2c(c1)C(=O)C1(O)CCN(c3ccc([N+](=O)[O-])cc3)C1=N2 (stereo not drawn) [Para-nitroblebbistatin] as the compound, how does the solubility [1] read?
Its solubility is “around 20 μM”.
